# Like-named read-outs stand apart in the source and are kept apart here.
# What was measured:
# [1] = tested on: SOS response in UPEC CFT073; assay: SOS response induction analysis, pAED2 cda' promoter mScarlet-I reporter; type: cell-based, Escherichia coli; conditions: for induction of the SOS response in growing UPEC cultures: 6 h, MMC, BLE, ECH in 1:4 CA-MHB pH 7.4, PLI, SAT, EVO in LPM pH 5.5
# Protocol: Since we aimed to test SOS induction in non-growing cultures, it was essential to use a reporter with no leaky expression in the stationary phase. Therefore, we constructed the plasmid pAED2, based on the low copy-number plasmid pSC101, which contains the cda’ promoter in front of the mScarlet-I-encoding reporter gene.
# Overnight cultures of CFT073 harboring a reporter plasmid were grown in 3 ml of LB supplemented with 100 µg/ml carbenicillin (Cb), then diluted 1:100 into the medium used for testing. For validation of the pANO1::cda’ reporter, an overnight culture was diluted into CA-MHB (supplemented with 40 mM HEPES, pH 7.4, and 100 µg/ml Cb) and grown to an OD600 ≈ 0.5 at 37 °C with shaking at 200 rpm in an Erlenmeyer flask. […] Empty wells were filled with water. […] The experiment was performed in triplicate.
# For analysis of the SOS induction by anti-cancer compounds, the overnight cultures were diluted either into 1:4 diluted CA-MHB (40 mM HEPES, pH 7.4) or LPM (30 mM MES, pH 5.5) that were supplemented with 100 µg/ml Cb. For analysis of the effect on growing bacteria, the cultures were incubated at 37 °C with shaking at 200 rpm in Erlenmeyer flasks for 90 min, to an OD600 ≈ 0.5. Then, 180 μl aliquots were transferred to 96-well plates, and 20 μl of the 200 μM drug solution was added to achieve a final concentration of 20 μM. The plates were incubated in a microplate reader (BioTek Synergy H1) at 37 °C with continuous shaking for 6 h. OD600 and mScarlet fluorescence were recorded throughout the incubation.
# For analysis of the effect of anti-cancer compounds on stationary phase- and regrowing bacteria, the cultures were incubated for 24 h at 37 °C with shaking at 200 rpm in Erlenmeyer flasks. […] The samples were incubated for 24 h at 37 °C in standing 1.5 ml tubes. Before and after the drug treatment, 25 μl aliquots were taken and diluted by mixing with 175 μl PBS. OD600 and mScarlet fluorescence were recorded using a microplate reader (BioTek Synergy H1).
# After the treatment, stationary-phase bacteria were harvested by centrifugation at 5000 × g for 5 min at 20 °C, washed twice with PBS, and resuspended in 475 μl PBS.
# [2] = tested on: non-growing S. aureus DSM2569; assay: Dilution-regrowth assay (OD600, start-growth-time) on stationary-phase S. aureus; type: cell-based, Staphylococcus aureus; conditions: for Regrowth, OD600 at 6h or 8h after dilution into drug-free medium: average
# Protocol: The cultures were grown and treated for 24 h in 1:4 CA-MHB (pH 7.4).
# This approach allowed us to capture the time when cultures reached a threshold optical density (start-growth-time, SGT[15]).
# The cultures were incubated for 24 h in non-baffled Erlenmeyer flasks at 37 °C with shaking at 200 rpm.
# For P. aeruginosa and S. aureus, dose–response analysis was conducted in 96-well plates with a 200 μl assay volume, following the procedure used for screening assay validation experiments. […] Stock solutions were prepared and stored according to the manufacturers’ instructions, then diluted in 10% DMSO before use. Cultures were incubated for 24 h in 1:4 diluted CA-MHB medium under the same conditions used for UPEC cultivation. In preliminary experiments, each compound was tested at a concentration of 20 μM in the dilution-regrowth assay with 4 technical replicates. Regrowth was monitored using a microplate reader at 37 °C with continuous shaking, and OD600 was recorded every 20 min. The time at which OD600 exceeded the threshold of 0.12 was recorded as the Start_Growth-Time.
# Statistical significance of the drug effects was assessed using a one-way ANOVA followed by Dunnett’s test, comparing each treatment to the drug-free control. Statistical significance of the differences in chemical characteristics between the hit compounds and the Prestwick library was assessed using a Mann–Whitney test. Statistical significance was set at P ≤ 0.05. A five-parameter logistic equation was used for asymmetric sigmoidal curve fitting and for EC50 and IC50 determination. The Venn diagram in Fig. 1F was prepared using BioVenn web application. Characteristics of the chemical and physical properties of Prestwick library compounds were obtained from Supplementary Table S1 from reference. Characteristics of the hit compounds not included in the Prestwick library were retrieved from the PubChem database.
# [3] = Staphylococcus aureus, DSM2569, S. aureus, regrowth delay of non-growing bacteria, 1:4 CA-MHB pH 7.4, 24 h treatment, OD600 8 h after dilution, read-out: EC50
# [4] = S. aureus, drug concentration 0.1
# [5] = S. aureus, drug concentration 0.5
# [6] = S. aureus, drug concentration 2.5
# [7] = S. aureus, drug concentration 10
molecule,measurement,setting,value
CS[C@H]1SC[C@H]2C(=O)N(C)[C@@H](C(C)C)C(=O)OC[C@@H](NC(=O)c3cnc4ccccc4n3)C(=O)N[C@@H](C)C(=O)N(C)[C@@H]1C(=O)N(C)[C@@H](C(C)C)C(=O)OC[C@@H](NC(=O)c1cnc3ccccc3n1)C(=O)N[C@@H](C)C(=O)N2C [Echinomycin],induction of the SOS response in growing UPEC cultures,[1]; 20 μM,induced the SOS response
N[C@@H]1CN(c2c(F)cc3c(=O)c(C(=O)O)cn([C@@H]4C[C@@H]4F)c3c2Cl)CC12CC2 [Sitafloxacin],EC50,"[2]; S. aureus, regrowth delay of non-growing bacteria, 1:4 CA-MHB pH 7.4, 24 h treatment, OD600 8 h after dilution, read-out: EC50",0.106 µM
CO[C@H]1/C=C/O[C@@]2(C)Oc3c(C)c(O)c4c(O)c(c(/C=N/N5CCN(C)CC5)c(O)c4c3C2=O)NC(=O)/C(C)=C\C=C\[C@H](C)[C@H](O)[C@@H](C)[C@@H](O)[C@@H](C)[C@H](OC(C)=O)[C@@H]1C [Rifampicin],EC50,[2]; [3],0.043 µM
CO[C@@]12[C@H](COC(N)=O)C3=C(C(=O)C(C)=C(N)C3=O)N1C[C@@H]1N[C@@H]12 [Mitomycin C],"Regrowth, OD600 at 6h or 8h after dilution into drug-free medium (average)",[2]; [4],0.433
same,"Regrowth, OD600 at 6h or 8h after dilution into drug-free medium (average)",[2]; [5],0.163
same,"Regrowth, OD600 at 6h or 8h after dilution into drug-free medium (average)",[2]; [6],0.087
same,"Regrowth, OD600 at 6h or 8h after dilution into drug-free medium (average)",[2]; [7],0.106
same,EC50,"[2]; Staphylococcus aureus, DSM2569, pH 7.4",0.129 µM
same,induction of the SOS response in growing UPEC cultures,[1]; 20 μM,induced the SOS response
O=C(O)c1cn(-c2ccc(F)cc2)c2cc(N3CCNCC3)c(F)cc2c1=O [Sarafloxacin],EC50,[2]; [3],0.662 µM
NC1CCN(c2c(F)cc3c(=O)c(C(=O)O)cn(C4CC4)c3c2Cl)C1 (stereo not drawn) [Clinafloxacin],OD600 at 6h or 8h after dilution into drug-free medium (regrowth),"[2]; S. aureus, drug conc 0.1",0.489
same,OD600 at 6h or 8h after dilution into drug-free medium (regrowth),"[2]; S. aureus, drug conc 0.5",0.280
same,OD600 at 6h or 8h after dilution into drug-free medium (regrowth),"[2]; S. aureus, drug conc 2.5",0.154
same,OD600 at 6h or 8h after dilution into drug-free medium (regrowth),"[2]; S. aureus, drug conc 10",0.126
same,EC50,[2]; [3],0.205 µM
CCCCCCCCN=c1ccn(CCCCCCCCCCn2ccc(=NCCCCCCCC)cc2)cc1 [Octenidine],"Regrowth, OD600 at 6h or 8h after dilution into drug-free medium","[2]; S. aureus, concentration 0.1",0.879
same,"Regrowth, OD600 at 6h or 8h after dilution into drug-free medium","[2]; S. aureus, concentration 0.5",0.554
same,"Regrowth, OD600 at 6h or 8h after dilution into drug-free medium","[2]; S. aureus, concentration 2.5",0.478
same,"Regrowth, OD600 at 6h or 8h after dilution into drug-free medium (average)",[2]; [7],0.086
same,EC50,[2]; [3],3.3 µM
CC1COc2c(N3CCN(C)CC3)c(F)cc3c(=O)c(C(=O)O)cn1c23 (stereo not drawn) [Ofloxacin],"Regrowth, OD600 at 6h or 8h after dilution into drug-free medium","[2]; S. aureus, concentration 0.1",0.643
same,"Regrowth, OD600 at 6h or 8h after dilution into drug-free medium","[2]; S. aureus, concentration 0.5",0.590
same,"Regrowth, OD600 at 6h or 8h after dilution into drug-free medium","[2]; S. aureus, concentration 2.5",0.519
same,"Regrowth, OD600 at 6h or 8h after dilution into drug-free medium","[2]; S. aureus, concentration 10",0.417
same,EC50,[2]; [3],14.3 µM
same,SOS induction during recovery of treated non-growing UPEC,"[1]; 10 μM, 24 h, then washed and diluted in CA-MHB, single control experiment",SOS induction during recovery
Plicamycin,"Regrowth, OD600 at 6h or 8h after dilution into drug-free medium (average)",[2]; [4],0.578
same,"Regrowth, OD600 at 6h or 8h after dilution into drug-free medium (average)",[2]; [5],0.347
same,"Regrowth, OD600 at 6h or 8h after dilution into drug-free medium (average)",[2]; [6],0.205
same,"Regrowth, OD600 at 6h or 8h after dilution into drug-free medium (average)",[2]; [7],0.143
same,EC50,"[2]; S. aureus, regrowth delay of non-growing bacteria, 1:4 CA-MHB pH 7.4, 24 h treatment, OD600 8 h after dilution",0.359 µM
same,induction of the SOS response in growing UPEC cultures,[1]; 20 μM,not detected
same,growth inhibition of growing UPEC,"[1]; 20 μM, LPM pH 5.5, Fig. S7C,D",only a slight growth inhibition

# Reference: PMC11992225, “Antibacterial compounds against non-growing and intracellular bacteria” (npj Antimicrobials and Resistance, 2025)
